We go through four molecules from US20050112128A1, “Inhibition of protein kinase c-mu (PKD) as a treatment for cardiac hypertrophy and heart failure” (Myogen, Inc. and Board of Regents, The University of Texas …, priority 2003, published 2005).

Entries after “also recorded” stand apart in the source; their conditions may differ.

For one experiment, the target named is T1, PKD (Homo sapiens, UniProt Q15139).
T1 sequence (Q15139 1-912): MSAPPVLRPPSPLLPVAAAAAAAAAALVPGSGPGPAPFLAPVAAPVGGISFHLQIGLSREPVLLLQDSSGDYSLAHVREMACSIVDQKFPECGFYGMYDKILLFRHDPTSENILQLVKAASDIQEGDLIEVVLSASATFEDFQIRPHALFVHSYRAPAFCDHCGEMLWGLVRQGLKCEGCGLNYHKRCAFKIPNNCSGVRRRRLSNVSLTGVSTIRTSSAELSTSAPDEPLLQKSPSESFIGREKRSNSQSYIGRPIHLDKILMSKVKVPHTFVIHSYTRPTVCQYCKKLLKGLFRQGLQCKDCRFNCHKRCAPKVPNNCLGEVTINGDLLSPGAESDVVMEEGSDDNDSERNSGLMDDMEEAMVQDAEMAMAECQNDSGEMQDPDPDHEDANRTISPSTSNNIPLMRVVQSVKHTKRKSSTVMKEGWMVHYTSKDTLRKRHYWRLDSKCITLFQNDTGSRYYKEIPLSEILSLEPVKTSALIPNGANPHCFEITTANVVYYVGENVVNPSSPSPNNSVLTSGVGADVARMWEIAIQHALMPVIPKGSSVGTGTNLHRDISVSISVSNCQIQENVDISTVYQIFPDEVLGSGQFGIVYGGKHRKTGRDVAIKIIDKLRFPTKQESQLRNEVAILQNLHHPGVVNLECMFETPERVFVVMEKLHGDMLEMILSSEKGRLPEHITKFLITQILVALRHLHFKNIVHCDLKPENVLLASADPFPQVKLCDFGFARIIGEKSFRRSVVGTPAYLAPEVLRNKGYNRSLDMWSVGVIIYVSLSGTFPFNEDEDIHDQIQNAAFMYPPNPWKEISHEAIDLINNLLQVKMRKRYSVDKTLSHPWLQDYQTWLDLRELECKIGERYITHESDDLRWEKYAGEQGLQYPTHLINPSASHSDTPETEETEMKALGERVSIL
Conditions: literature (Van Lint 2002; Gschwendt 1996; Haworth); cited from earlier work.

Experiment [1] has as its system nuclear export of GFP-HDAC5 in NRVMs. Briefly: Quantitative HDAC5 nuclear export assay in NRVMs (Cellomics High Content Imaging System). Particulars: NRVMs, 2 hrs, inhibitor pre-treatment 30 min; for block of PE-induced nuclear export of HDAC5: PE 20 μM, KN93, wortmannin, staurosporine 1 mM, U1026, HA1077, Y-27632, DAG Kinase inhibitor II, SB216763, Bis I 10 mM, rapamycin 30 ng/ml, Gö6983 10 μM. It counts as cell-based, rat.

The test system of another experiment is HDAC5-bound PKD. It counts as biochemical, rat. Particulars: NRVMs pre-treated 30 min with 10 μM inhibitor (pre-Bis I).

For the molecule `Cn1cc(C2=C(c3cn(CCCSC(=N)N)c4ccccc34)C(=O)NC2=O)c2ccccc21` [Ro 31-8220], the “sensitivity of PKD to the inhibitor” value at PKD is reported as “insensitive”.

In the case of `CN(C)CCCn1cc(C2=C(c3c[nH]c4ccccc34)C(=O)NC2=O)c2ccccc21` [Bis I, bisindolylmaleimide I], the “block of ET-1-induced nuclear export of HDAC5” value in experiment [1] (ET-1 50 nM) is reported as “had no effect”. Moreover, in experiment [1] (FBS 10%), the “block of FBS-induced nuclear export of HDAC5” value is “had no effect”. Moreover, in experiment [1], the “block of PE-induced nuclear export of HDAC5” value was “effective in blocking PE-dependent export of HDAC5; also recorded: inhibitory effect on PE-dependent HDAC5 nuclear export; also recorded: effective in blocking HDAC5 nuclear export”. The “sensitivity of PKD to the inhibitor” value on PKD is “not to Bis I or Gö6983”. For the same molecule, in the experiment with HDAC5-bound PKD, the “block of HDAC5 phosphorylation, inhibitor given to cells before PMA” value is “Phosphorylation of HDAC5 was blocked”.

`COc1ccc2c(c1)c(C1=C(c3c[nH]c4ccccc34)C(=O)NC1=O)cn2CCCN(C)C` [Go6983]: the “block of PE-induced nuclear export of HDAC5” value in experiment [1] is “inhibiting HDAC5 nuclear export in response to PE”. Also, at PKD, the “sensitivity of PKD to the inhibitor” value is “not to Bis I or Gö6983”.

As for `CN(C)CCCn1cc(C2=C(c3c[nH]c4ccccc34)C(=O)NC2=O)c2ccccc21` [GF I], the “sensitivity of PKD to the inhibitor” value at PKD is recorded as “insensitive”.
